One data set concerns pSTAT5 in CD3+ cells. As to the kind of experiment: Inhibition of IFN-alpha induced pSTAT5 expression in CD3+ cells (human PBMC), FACS assay. Particulars: IFN-α 20 ng/ml. Type of data set: cell-based. How it is done:
Test Example 1: The Inhibitory Effect of Compounds on the Expression of Pstat5 in CD3+ Cells Using FACS Assay
• DMSO, Sigma, Cat #D2650-100 mL, stored at room temperature. • Perm buffer III, BD Biosciences, Cat #558050, stored at 4° C. • Lyse/Fix buffer, BD Biosciences, Cat #558049, stored at room temperature. • EDTA, Invitrogen, Cat #15575-038, stored at room temperature. • PBS, Hyclone, Cat #SH30256.01, stored at 4° C. • PE Mouse Anti-Human CD3, BD Biosciences, Cat #555333, stored at 4° C. • Mouse anti-human Phospho-STAT5 (pY694) (Alexa Fluor® 647 Conjugate), • BD Biosciences, Cat #562076, stored at 4° C. • IFN-α, Biolegend, Cat #592702.
• 1) On the day of experiment, the compound was prepared into a 10 mM solution with DMSO, diluted to 1.5 mM in DMSO, and then diluted to 8 gradient concentrations in 3-fold dilutions Concentrations. • 2) 5 μL of the diluted compound was transferred into 120 ul of DPBS solution containing 0.1% BSA. • 3) Positive and negative control groups were set up, and 0.2% DMSO was added to the positive and negative control groups. 2.2 Experimental procedure • 1) 0.5 million and 67.5 ul of human PBMC cells was added to the 96-well cell culture plate per well. • 2) 3.5 ul of diluted compound was added and mixed well. • 3) Incubation was conducted in a 37° C. incubator for 60 minutes. • 4) IFN-alpha was diluted in DPBS containing 0.1% BSA to […], and PE anti-hCD3 antibody was diluted in DPBS containing 0.1% BSA to 3 fold. When the above 60-minute incubation was complete, diluted PE anti-hCD3 antibody was added at 5 ul per well and diluted IFN-α was added at 4 ul per well, i.e., the final concentration of IFN-α per well is 20 ng/ml. • 5) Incubation was conducted in a 37° C. incubator for 30 minutes. • 6) All cells were transferred to a 96-well deep well plate and 1 ml of 37° C. preheated lysis/fix buffer was added. • 7) Incubation was conducted at 37° C. in dark for 10 minutes. • 8) Centrifugation was carried out at 600 g for 5 minutes and then the supernatant was discarded. 1 ml PBS was added to wash for twice and then centrifuged. • 9) 1 ml of Perm buffer III was added to the cell precipitation. • 10) Incubation was conducted at 4° C. in dark for 30 minutes. • 11) Centrifugation was carried out at 600 g for 5 minutes and then the supernatant was discarded. 1 ml PBS was added to wash for twice and then centrifuged. • 12) APC anti-human pSTAT5 antibody was diluted in staining buffer by 200-fold, which was added to cell wells at 100 uL per well and mixed well. • 13) Incubation was conducted at room temperature for 40 minutes. • 14) Staining buffer was added to wash for twice with 1 mL for each well, and centrifugation was carried out at 600 g for 5 minutes. • 15) After discarding the supernatant, the cell precipitation was re-suspended in 300 μL of staining buffer. • 16) Sample loading and analysis were carried out in a flow cytometer. The IC50 of the samples to be tested was obtained from the above, Table 1.
A general note: Flow cytometry measures light scatter and fluorescence of single cells or particles in a stream.

The next data set has as its target TYK2(JH2) (Homo sapiens (Human), UniProt P29597). Briefly: Pseudo kinase experiment, TYK2 (JH2), tracer/Tb. Type of data set: binding. How it is done: (§1) 1.1.1. The compound was dissolved with DMSO to a storage concentration of 10 mM.
(§2) 1.1.2. A compound concentration of 200 times the final concentration was prepared in a compound dilution plate, which was diluted from the highest concentration point with a total of 4 concentration points using the 27 times dilution method, and transferred to the Echo plate.
(§3) 1.1.3. The compound was flushed from the Echo plate to the 384-well experimental plate using an Echo instrument, and the compound become 11 concentration points of the 3-fold dilution matrix.
(§4) 1.1.4. 5 μl of 3×TYK2(JH2) or JAK1(JH2) kinase was added to the 384-well experimental plate.
(§5) 1.1.5. 5 μl of 3×Tb was added to the 384-well experimental plate.
(§6) 1.1.6.5 μl of 3× Tracer was added to the 384-well experimental plate.
(§7) 1.1.7. Centrifugation was conducted for 30 seconds and incubation was carried out at room temperature for 60 minutes.
(§8) 1.1.8. The signal values were read using Envision Microplate Reader (PerkinElmer).
(§9) 1.3.1. XL-Fit software was used for data analysis to obtain IC50 of the compounds, Table 2.

Data set [1] can be described thus: Drug concentrations in plasma samples and brain tissue samples after oral administration, LC-MS/MS. It is filed as in vivo, female C57BL/6 mice. Particulars: female, C57BL/6, mouse, 15 consecutive days, 2Hr after the last dose, mice; for Kp at 2 h: brain/plasma, read-out: Ratio (brain tissue to plasma concentration). How it is done:
The purpose of the study was to evaluate drug concentrations in plasma samples and brain tissue samples of female C57BL/6 mice after 15 consecutive days of oral administration of 10 mg/kg, 30 mg/kg, and 90 mg/kg of Compound 4S. The drug concentrations of Compound 4S in plasma samples and brain tissue homogenate samples were detected by the positive ion (ESI) multi-reactive ion monitoring (MRM) scanning mode of LC-MS instrument with a linear range of 1-10000 ng/mL.
Plasma samples from 10 mice orally administered with Compound 4S: For standard curves, QC samples, single blanks, and unknown samples, the sample volume was 10 μL and each was added with 200 μL of methanol: acetonitrile=1:1 (v/v) precipitant (containing 5 ng/mL of Terfenadine). For double-blank samples, each was added with 200 μL of Methanol: Acetonitrile=1:1 (v/v) precipitant. The samples were vortexed for 1 min and centrifuged for 15 min (4000 rpm, 4° C.) to obtain the supernatant solution, which was diluted by 10-fold using methanol: water=1:1 (v/v, containing 0.1% FA) as the diluent solution and then subjected to LC-MS/MS analysis.
Brain tissue homogenate samples from 10 mice orally administered with Compound 4S: For standard curves, QC samples, single blanks, and unknown samples, the sample volume was 50 μL and each was added with 200 μL of methanol: acetonitrile=1:1 (v/v) precipitant (containing 5 ng/mL of Terfenadine). For double-blank samples, a 50 μL sample of blank brain tissue homogenate was taken and added with 200 μL of methanol/acetonitrile (1:1, v/v) precipitant. The samples were vortexed for 1 min and centrifuged for 15 min (4000 rpm, 4° C.) to obtain the supernatant solution, which was diluted by 10-fold using methanol: water=1:1 (v/v, containing 0.1% FA) as the diluent solution and then subjected to LC-MS/MS analysis. Drug exposures in plasma samples and brain tissue samples at different administered doses and at different frequencies of administration of the same administered dose were compared (Table 3).

Another data set concerns the target JAK3 (JH1) (Homo sapiens (Human), UniProt P52333). As to the kind of experiment: JAK family kinase experiment, JAK3 (JH1). It is filed as biochemical. How it is done: (§10) 1.2.1. The compound was dissolved with DMSO to a storage concentration of 10 mM.
(§11) 1.2.2. A compound concentration of 100 times the final concentration was prepared in a compound dilution plate, which was diluted from the highest concentration point with a total of 4 concentration points using the 27 times dilution method, and transferred to the Echo plate.
(§12) 1.2.3. The compound was flushed from the Echo plate to the 384 experimental plate using an Echo instrument, and the compound become 11 concentration points of the 3-fold dilution matrix.
(§13) 1.2.4. 2× kinase working solution was prepared, which was added to a 384-well experimental plate at 5 μl per well. The compound and the kinase were incubated at room temperature for 15 minutes.
(§14) 1.2.5. 5 ul of 2× substrate (containing ATP) was added to the 384 well plate.
(§15) 1.2.6. Incubation was conducted at room temperature for 45 minutes.
(§16) 1.2.7. The detection reagent mixture was added to the 384-well plate, and centrifuged for 30 seconds, and incubation was conducted at room temperature for 60 minutes.
(§17) 1.2.8. The signal values were read using Envision Microplate Reader (PerkinElmer).
as §9

A further data set has as its target JAK1 (JH1) (Homo sapiens (Human), UniProt P23458). Briefly: JAK family kinase experiment, JAK1 (JH1). It is filed as biochemical. As to the method:
as §10, §11, §12, §13, §14, §15, §16, §17, §9

The next data set addresses TYK2 (JH1) (Homo sapiens (Human), UniProt P29597). As to the kind of experiment: JAK family kinase experiment, TYK2 (JH1). It is filed as biochemical. As to the method:
as §10, §11, §12, §13, §14, §15, §16, §17, §9

The next data set deals with JAK2 (JH1) (Homo sapiens (Human), UniProt O60674). Briefly: JAK family kinase experiment, JAK2 (JH1). It is filed as biochemical. How it is done:
as §10, §11, §12, §13, §14, §15, §16, §17, §9

The target of another data set is JAK1(JH2) (Homo sapiens (Human), UniProt P23458). As to the kind of experiment: Pseudo kinase experiment, JAK1 (JH2), tracer/Tb. Type of data set: binding. How it is done: as §1, §2, §3, §4, §5, §6, §7, §8, §9

The values that follow come from patent publication US20250333393A1, “HETEROCYCLIC COMPOUND AS TYK2 INHIBITOR, AND SYNTHESIS AND USE THEREOF” (ZHEJIANG WENDA PHARMACEUTICAL TECHNOLOGY CO., LTD., priority 2023, published 2025).

Molecules are shown by their SMILES. Where two headings read alike, the source gives them in different places.

Chain of JAK3 (JH1) (P52333 822-1111): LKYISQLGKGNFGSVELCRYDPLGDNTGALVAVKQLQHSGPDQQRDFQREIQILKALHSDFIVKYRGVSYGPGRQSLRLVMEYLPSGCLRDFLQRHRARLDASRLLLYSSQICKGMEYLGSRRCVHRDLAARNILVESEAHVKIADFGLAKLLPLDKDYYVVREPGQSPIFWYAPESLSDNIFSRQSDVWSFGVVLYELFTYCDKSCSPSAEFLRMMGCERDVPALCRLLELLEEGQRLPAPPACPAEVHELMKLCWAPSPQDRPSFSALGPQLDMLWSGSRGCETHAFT
Chain of TYK2(JH2) (P29597 589-875): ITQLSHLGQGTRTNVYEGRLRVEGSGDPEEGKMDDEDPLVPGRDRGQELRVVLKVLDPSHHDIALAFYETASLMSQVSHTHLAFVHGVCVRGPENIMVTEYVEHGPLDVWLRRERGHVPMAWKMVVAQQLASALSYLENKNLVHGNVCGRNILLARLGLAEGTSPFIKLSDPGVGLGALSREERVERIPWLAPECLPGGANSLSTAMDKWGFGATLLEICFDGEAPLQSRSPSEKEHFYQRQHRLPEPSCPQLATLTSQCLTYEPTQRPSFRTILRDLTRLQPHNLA
Chain of JAK1 (JH1) (P23458 875-1153): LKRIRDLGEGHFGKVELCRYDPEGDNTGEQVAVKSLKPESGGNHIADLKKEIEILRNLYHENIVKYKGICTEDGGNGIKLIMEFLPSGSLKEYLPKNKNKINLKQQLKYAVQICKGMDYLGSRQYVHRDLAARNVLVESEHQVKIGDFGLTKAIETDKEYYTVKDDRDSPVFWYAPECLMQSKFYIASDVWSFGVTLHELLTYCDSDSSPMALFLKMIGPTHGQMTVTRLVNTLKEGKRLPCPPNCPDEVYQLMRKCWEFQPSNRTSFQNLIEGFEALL
Chain of TYK2 (JH1) (P29597 897-1176): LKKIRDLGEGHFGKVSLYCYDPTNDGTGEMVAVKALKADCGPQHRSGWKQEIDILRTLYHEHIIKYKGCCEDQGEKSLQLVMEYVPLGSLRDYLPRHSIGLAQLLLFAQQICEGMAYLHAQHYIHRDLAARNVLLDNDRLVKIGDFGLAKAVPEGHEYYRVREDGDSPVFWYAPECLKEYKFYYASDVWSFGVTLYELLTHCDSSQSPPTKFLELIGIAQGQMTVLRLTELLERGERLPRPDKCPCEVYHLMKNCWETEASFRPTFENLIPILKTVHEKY
Chain of JAK1(JH2) (P23458 583-855): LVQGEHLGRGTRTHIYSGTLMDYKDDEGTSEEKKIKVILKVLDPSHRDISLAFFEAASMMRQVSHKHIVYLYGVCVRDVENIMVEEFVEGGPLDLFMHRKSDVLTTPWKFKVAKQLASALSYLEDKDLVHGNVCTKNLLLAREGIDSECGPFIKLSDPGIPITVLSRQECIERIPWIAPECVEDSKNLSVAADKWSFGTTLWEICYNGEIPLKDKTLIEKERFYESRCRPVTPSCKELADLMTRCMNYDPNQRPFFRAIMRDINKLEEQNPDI
Chain of JAK2 (JH1) (O60674 849-1124): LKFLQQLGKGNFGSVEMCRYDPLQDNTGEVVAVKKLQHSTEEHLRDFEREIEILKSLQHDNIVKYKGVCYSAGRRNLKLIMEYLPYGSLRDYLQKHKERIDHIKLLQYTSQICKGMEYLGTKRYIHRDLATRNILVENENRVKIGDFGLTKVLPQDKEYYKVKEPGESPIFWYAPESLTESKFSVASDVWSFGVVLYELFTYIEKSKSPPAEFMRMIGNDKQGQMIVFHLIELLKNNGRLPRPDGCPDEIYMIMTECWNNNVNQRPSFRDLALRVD

As a reminder, the IC50 is the concentration at which inhibition is half-maximal. The low end stands for greater potency in that assay, the high end for weaker potency in that assay. `CCC(=O)c1cnc(NC(=O)[C@@H]2CC23CC3)cc1Nc1nccc(-c2cnn(C)n2)c1OC` [Compound 1R]: the IC50 in the data set on pSTAT5 in CD3+ cells was > 50 nM.
With `CCC(=O)c1cnc(NC(=O)[C@H]2CC23CC3)cc1Nc1nccc(-c2cnn(C)n2)c1OC` [Compound 1S], in the data set on pSTAT5 in CD3+ cells, the half-maximal inhibitory concentration (IC50) was < 50 nM.
As for `CCC(=O)c1cnc(NC(=O)[C@@H]2CC23CC3)cc1Nc1cccc(-c2cnn(C)n2)c1OC` [Compound 2R], in the data set with pSTAT5 in CD3+ cells, the IC50 was > 50 nM.
As for `CCC(=O)c1cnc(NC(=O)[C@H]2CC23CC3)cc1Nc1cccc(-c2cnn(C)n2)c1OC` [Compound 2S], in the data set on pSTAT5 in CD3+ cells, the 50% inhibitory concentration (IC50) is > 50 nM.
For the molecule `[2H]C([2H])([2H])n1ncc(-c2ccnc(Nc3cc(NC(=O)[C@@H]4CC45CC5)ncc3C(=O)CC)c2OC)n1` [Compound 3R], the 50% inhibitory concentration (IC50) in the data set with pSTAT5 in CD3+ cells was < 50 nM.
As to `[2H]C([2H])([2H])n1ncc(-c2ccnc(Nc3cc(NC(=O)[C@H]4CC45CC5)ncc3C(=O)CC)c2OC)n1` [Compound 3S], the half-maximal inhibitory concentration (IC50) in the data set on pSTAT5 in CD3+ cells was < 50 nM.
Turning to `[2H]C([2H])([2H])Oc1c(-c2cnn(C)n2)ccnc1Nc1cc(NC(=O)[C@@H]2CC23CC3)ncc1C(=O)CC` [Compound 4R], in the data set with pSTAT5 in CD3+ cells, the IC50 was > 50 nM.
Take `[2H]C([2H])([2H])Oc1c(-c2cnn(C)n2)ccnc1Nc1cc(NC(=O)[C@H]2CC23CC3)ncc1C(=O)CC` [Compound 4S]: the half-maximal inhibitory concentration (IC50) is 0.29 nM on TYK2(JH2); > 9900 nM on JAK3 (JH1); > 9900 nM against JAK1 (JH1); > 9900 nM against TYK2 (JH1); 5420 nM on JAK2 (JH1); < 50 nM in the data set with pSTAT5 in CD3+ cells. The molecule also had a 50% inhibitory concentration (IC50) against JAK1(JH2) of 22 nM. The concentration at 2 h in data set [1] (brain, 10 mg/kg, 10 mg QD oral, read-out: concentration in brain) stood at 615 ng/mL; in data set [1] (brain, 30 mg/kg, 30 mg BID oral, read-out: concentration in brain) it was 2360 ng/mL; in data set [1] (brain, 30 mg/kg, 30 mg QD oral, read-out: concentration in brain), 2360 ng/mL; in data set [1] (brain, 90 mg/kg, 90 mg QD oral, read-out: concentration in brain), 6260 ng/mL; in data set [1] (plasma, 10 mg/kg, 10 mg QD oral, read-out: concentration in plasma), 784 ng/mL; in data set [1] (plasma, 30 mg/kg, 30 mg BID oral, read-out: concentration in plasma), 2740 ng/mL. Besides, the concentration at 2 h in data set [1] (plasma, 30 mg/kg, 30 mg QD oral, read-out: concentration in plasma) was 2040 ng/mL; in data set [1] (plasma, 90 mg/kg, 90 mg QD oral, read-out: concentration in plasma), 4720 ng/mL. In addition, the Kp at 2 h in data set [1] (10 mg/kg, 10 mg QD oral) amounted to 0.788; in data set [1] (30 mg/kg, 30 mg BID oral), 0.88; in data set [1] (30 mg/kg, 30 mg QD oral) it was 1.11; in data set [1] (90 mg/kg, 90 mg QD oral), 1.32.
As to `[2H]C([2H])([2H])Oc1c(-c2cnn(C([2H])([2H])[2H])n2)ccnc1Nc1cc(NC(=O)[C@@H]2CC23CC3)ncc1C(=O)CC` [Compound 5R], the half-maximal inhibitory concentration (IC50) with pSTAT5 in CD3+ cells is > 50 nM.
Consider `[2H]C([2H])([2H])Oc1c(-c2cnn(C([2H])([2H])[2H])n2)ccnc1Nc1cc(NC(=O)[C@H]2CC23CC3)ncc1C(=O)CC` [Compound 5S], for which the IC50 with pSTAT5 in CD3+ cells is < 50 nM.
Regarding `CCC(=O)c1cnc(NC(=O)[C@@H]2CC23CC3)cc1Nc1nc(C)cc(-c2cnn(C)n2)c1OC` [Compound 6R], the half-maximal inhibitory concentration (IC50) in the data set on pSTAT5 in CD3+ cells was < 50 nM.
The same measure, in the same setting: to `CCC(=O)c1cnc(NC(=O)[C@H]2CC23CC3)cc1Nc1nc(C)cc(-c2cnn(C)n2)c1OC` [Compound 6S] belongs < 50 nM.
